# Test results taken from the kinase profiling compilation of Christmann-Franck et al. (2016).
# Values joined by “and” are separate entries in the source; they are usually repeats but may differ in a detail not shown here. Identical values can stand only once.
# Target: PRKACA (human) (UniProt P17612)
# Test: radiometric filter-binding kinase assay, Kinase HotSpot
# Conditions: compound 0.5 µM; ATP 10 µM
row,SMILES,residual activity [%]
1,NC(=O)c1ccc(N(C(N)=O)c2c(F)cccc2F)nc1-c1ccc(F)cc1F,101
2,O=c1cc(-c2cccc3c2Sc2ccccc2S3)oc(N2CCOCC2)c1,99.6
3,CC(C)(C)c1nc2c3ccc(F)cc3c3c(=O)[nH]ccc3c2[nH]1,97.9

# Target: STK25 (human) (UniProt O00506)
# Test: as above
# Conditions: compound 0.5 µM; ATP 10 µM
row,SMILES,residual activity [%]
1,CC(C)n1cnc2c(Nc3cccc(Cl)c3)nc(NCCO)nc21,92.9
2,COc1cc2nccc(Oc3ccc(NC(=S)NC(=O)c4ccccc4C)cc3)c2cc1OC,103
3,NC(=O)c1ccc(N(C(N)=O)c2c(F)cccc2F)nc1-c1ccc(F)cc1F,97.1
4,O=c1cc(-c2cccc3c2Sc2ccccc2S3)oc(N2CCOCC2)c1,99.6
5,CC(C)(C)c1nc2c3ccc(F)cc3c3c(=O)[nH]ccc3c2[nH]1,86.9

# Target: GRK4 (human) (UniProt P32298)
# Test: as above
# Conditions: compound 0.5 µM; ATP 10 µM
# Chain of GRK4 (human) (P32298 whole entry, looked up): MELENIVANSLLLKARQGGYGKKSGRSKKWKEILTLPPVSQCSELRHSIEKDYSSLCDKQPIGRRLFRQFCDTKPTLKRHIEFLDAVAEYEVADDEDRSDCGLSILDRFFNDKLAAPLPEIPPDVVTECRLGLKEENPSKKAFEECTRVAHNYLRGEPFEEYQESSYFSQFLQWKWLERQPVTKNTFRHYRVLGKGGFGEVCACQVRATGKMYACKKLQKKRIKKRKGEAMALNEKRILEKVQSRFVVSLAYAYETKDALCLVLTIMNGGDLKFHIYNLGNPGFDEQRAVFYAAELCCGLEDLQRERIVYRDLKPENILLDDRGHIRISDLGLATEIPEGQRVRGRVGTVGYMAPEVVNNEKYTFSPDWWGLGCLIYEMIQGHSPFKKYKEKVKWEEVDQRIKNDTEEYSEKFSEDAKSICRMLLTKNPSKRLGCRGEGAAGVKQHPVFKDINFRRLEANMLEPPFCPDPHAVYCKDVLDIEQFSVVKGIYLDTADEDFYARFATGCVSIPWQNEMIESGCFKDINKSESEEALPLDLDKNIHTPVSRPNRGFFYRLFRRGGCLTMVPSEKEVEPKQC
row,SMILES,residual activity [%]
1,CC(C)n1cnc2c(Nc3cccc(Cl)c3)nc(NCCO)nc21,93.5
2,COc1cc2nccc(Oc3ccc(NC(=S)NC(=O)c4ccccc4C)cc3)c2cc1OC,95.9
3,NC(=O)c1ccc(N(C(N)=O)c2c(F)cccc2F)nc1-c1ccc(F)cc1F,90.7
4,O=c1cc(-c2cccc3c2Sc2ccccc2S3)oc(N2CCOCC2)c1,105
5,CC(C)(C)c1nc2c3ccc(F)cc3c3c(=O)[nH]ccc3c2[nH]1,74.2

# Target: CAMK1G (human) (UniProt Q96NX5)
# Test: as above
# Conditions: compound 0.5 µM; ATP 10 µM
# Chain of CAMK1G (human) (Q96NX5 whole entry, looked up): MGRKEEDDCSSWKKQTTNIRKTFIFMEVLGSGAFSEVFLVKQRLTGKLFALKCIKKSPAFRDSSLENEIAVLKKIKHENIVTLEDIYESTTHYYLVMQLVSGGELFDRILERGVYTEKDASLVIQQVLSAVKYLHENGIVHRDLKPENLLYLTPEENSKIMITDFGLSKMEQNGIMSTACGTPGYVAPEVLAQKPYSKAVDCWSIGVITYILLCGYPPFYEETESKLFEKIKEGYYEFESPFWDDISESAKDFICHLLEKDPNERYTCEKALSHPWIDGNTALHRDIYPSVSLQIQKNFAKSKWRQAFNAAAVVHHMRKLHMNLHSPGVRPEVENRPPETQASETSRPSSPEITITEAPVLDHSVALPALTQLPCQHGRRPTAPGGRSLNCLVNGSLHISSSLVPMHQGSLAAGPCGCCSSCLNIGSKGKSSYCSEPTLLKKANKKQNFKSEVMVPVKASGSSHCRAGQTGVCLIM
row,SMILES,residual activity [%]
1,CC(C)n1cnc2c(Nc3cccc(Cl)c3)nc(NCCO)nc21,98.7
2,COc1cc2nccc(Oc3ccc(NC(=S)NC(=O)c4ccccc4C)cc3)c2cc1OC,99.5
3,NC(=O)c1ccc(N(C(N)=O)c2c(F)cccc2F)nc1-c1ccc(F)cc1F,108
4,O=c1cc(-c2cccc3c2Sc2ccccc2S3)oc(N2CCOCC2)c1,99.4
5,CC(C)(C)c1nc2c3ccc(F)cc3c3c(=O)[nH]ccc3c2[nH]1,95.3

# Target: MINK1 (human) (UniProt Q8N4C8)
# Test: as above
# Conditions: compound 0.5 µM; ATP 10 µM
# Chain of MINK1 (human) (Q8N4C8 whole entry, looked up): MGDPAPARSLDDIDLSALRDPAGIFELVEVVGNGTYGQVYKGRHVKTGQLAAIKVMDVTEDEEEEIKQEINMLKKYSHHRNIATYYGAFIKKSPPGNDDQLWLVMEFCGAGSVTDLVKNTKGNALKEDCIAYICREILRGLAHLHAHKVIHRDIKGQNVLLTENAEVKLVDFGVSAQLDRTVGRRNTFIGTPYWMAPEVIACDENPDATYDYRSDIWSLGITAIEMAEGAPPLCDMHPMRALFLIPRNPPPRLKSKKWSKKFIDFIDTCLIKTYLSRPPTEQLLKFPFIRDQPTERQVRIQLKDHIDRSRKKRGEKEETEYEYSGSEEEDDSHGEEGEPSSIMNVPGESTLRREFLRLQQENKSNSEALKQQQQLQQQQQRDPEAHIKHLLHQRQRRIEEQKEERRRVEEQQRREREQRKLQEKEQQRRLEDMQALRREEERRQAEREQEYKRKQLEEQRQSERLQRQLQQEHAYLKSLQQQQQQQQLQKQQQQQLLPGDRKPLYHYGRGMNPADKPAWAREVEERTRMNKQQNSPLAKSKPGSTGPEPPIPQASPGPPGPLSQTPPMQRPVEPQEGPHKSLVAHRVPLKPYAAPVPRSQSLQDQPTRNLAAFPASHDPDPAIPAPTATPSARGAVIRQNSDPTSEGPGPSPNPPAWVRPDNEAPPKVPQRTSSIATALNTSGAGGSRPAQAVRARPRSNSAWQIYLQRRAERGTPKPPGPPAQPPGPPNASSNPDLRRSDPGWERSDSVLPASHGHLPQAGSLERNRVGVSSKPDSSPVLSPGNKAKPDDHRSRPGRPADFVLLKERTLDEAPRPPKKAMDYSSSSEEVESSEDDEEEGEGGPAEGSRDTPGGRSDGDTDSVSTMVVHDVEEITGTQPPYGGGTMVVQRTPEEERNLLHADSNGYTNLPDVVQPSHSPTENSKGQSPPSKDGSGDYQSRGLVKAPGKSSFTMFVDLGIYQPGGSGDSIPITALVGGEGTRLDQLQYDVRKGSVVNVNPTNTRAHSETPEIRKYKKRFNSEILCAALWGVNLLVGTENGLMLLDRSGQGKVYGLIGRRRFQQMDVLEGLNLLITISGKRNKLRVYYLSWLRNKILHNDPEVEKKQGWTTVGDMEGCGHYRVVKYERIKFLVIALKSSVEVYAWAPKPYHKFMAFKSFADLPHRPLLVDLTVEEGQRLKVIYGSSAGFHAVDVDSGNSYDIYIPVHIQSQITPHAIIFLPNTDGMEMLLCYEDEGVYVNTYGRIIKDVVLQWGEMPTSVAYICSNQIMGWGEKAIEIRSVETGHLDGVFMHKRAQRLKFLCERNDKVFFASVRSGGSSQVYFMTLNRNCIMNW
row,SMILES,residual activity [%]
1,CC(C)n1cnc2c(Nc3cccc(Cl)c3)nc(NCCO)nc21,86.3
2,COc1cc2nccc(Oc3ccc(NC(=S)NC(=O)c4ccccc4C)cc3)c2cc1OC,90.1
3,NC(=O)c1ccc(N(C(N)=O)c2c(F)cccc2F)nc1-c1ccc(F)cc1F,100
4,O=c1cc(-c2cccc3c2Sc2ccccc2S3)oc(N2CCOCC2)c1,100
5,CC(C)(C)c1nc2c3ccc(F)cc3c3c(=O)[nH]ccc3c2[nH]1,52

# Target: MAPK3 (human) (UniProt P27361)
# Test: as above
# Conditions: compound 0.5 µM; ATP 10 µM
row,SMILES,residual activity [%]
1,CC(C)n1cnc2c(Nc3cccc(Cl)c3)nc(NCCO)nc21,111
2,COc1cc2nccc(Oc3ccc(NC(=S)NC(=O)c4ccccc4C)cc3)c2cc1OC,106
3,NC(=O)c1ccc(N(C(N)=O)c2c(F)cccc2F)nc1-c1ccc(F)cc1F,95.2
4,O=c1cc(-c2cccc3c2Sc2ccccc2S3)oc(N2CCOCC2)c1,118
5,CC(C)(C)c1nc2c3ccc(F)cc3c3c(=O)[nH]ccc3c2[nH]1,85.7

# Target: MYLK (human) (UniProt Q15746)
# Test: as above
# Conditions: compound 0.5 µM; ATP 10 µM
# Chain of MYLK (human) (Q15746 whole entry, looked up): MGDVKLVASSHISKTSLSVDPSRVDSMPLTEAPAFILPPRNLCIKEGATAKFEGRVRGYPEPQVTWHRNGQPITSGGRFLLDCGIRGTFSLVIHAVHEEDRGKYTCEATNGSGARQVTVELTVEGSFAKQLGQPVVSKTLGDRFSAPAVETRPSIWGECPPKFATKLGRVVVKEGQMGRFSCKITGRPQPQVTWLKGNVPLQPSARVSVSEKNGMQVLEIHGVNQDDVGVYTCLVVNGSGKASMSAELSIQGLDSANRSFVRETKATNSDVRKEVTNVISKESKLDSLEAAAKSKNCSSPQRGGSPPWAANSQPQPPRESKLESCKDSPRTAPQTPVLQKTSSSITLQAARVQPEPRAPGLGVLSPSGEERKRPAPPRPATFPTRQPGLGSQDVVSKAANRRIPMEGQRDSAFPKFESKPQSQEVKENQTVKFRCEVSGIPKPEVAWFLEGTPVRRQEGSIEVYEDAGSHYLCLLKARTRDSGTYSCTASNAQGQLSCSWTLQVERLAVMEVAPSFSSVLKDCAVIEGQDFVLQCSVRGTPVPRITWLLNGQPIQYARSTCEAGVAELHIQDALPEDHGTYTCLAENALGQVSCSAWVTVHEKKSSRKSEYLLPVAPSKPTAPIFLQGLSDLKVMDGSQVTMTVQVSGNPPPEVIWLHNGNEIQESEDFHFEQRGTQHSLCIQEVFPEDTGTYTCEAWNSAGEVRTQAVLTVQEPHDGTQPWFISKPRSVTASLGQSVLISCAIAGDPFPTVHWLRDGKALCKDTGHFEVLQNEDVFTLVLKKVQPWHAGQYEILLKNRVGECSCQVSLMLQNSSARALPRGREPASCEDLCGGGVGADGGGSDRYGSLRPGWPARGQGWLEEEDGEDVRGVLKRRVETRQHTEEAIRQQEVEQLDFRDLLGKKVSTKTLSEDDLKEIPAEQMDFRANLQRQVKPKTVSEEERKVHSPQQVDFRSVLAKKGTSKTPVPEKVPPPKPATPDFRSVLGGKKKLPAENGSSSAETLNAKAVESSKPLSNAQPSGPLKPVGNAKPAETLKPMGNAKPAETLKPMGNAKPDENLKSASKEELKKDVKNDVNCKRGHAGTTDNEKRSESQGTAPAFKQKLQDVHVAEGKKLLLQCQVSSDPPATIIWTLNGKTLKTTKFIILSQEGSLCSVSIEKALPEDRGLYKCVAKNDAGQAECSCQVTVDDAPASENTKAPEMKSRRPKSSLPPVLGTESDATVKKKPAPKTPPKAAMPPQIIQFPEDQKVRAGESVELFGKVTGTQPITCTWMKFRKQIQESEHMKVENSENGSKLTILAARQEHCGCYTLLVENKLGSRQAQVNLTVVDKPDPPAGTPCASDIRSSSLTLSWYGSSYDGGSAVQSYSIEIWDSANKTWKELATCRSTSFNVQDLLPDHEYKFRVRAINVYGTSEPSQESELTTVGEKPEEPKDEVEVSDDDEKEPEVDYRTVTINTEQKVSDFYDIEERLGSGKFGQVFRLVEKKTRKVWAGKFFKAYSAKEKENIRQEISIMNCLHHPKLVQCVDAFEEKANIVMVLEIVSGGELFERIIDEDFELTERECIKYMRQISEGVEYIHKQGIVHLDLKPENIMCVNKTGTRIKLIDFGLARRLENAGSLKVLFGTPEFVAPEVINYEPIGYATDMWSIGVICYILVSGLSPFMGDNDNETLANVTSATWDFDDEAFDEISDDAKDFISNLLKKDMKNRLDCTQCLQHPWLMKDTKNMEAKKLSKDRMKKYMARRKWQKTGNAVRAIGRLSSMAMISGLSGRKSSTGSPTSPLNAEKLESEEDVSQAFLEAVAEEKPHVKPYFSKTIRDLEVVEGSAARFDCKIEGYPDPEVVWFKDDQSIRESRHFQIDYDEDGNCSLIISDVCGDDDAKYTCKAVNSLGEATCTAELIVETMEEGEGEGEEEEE
row,SMILES,residual activity [%]
1,CC(C)n1cnc2c(Nc3cccc(Cl)c3)nc(NCCO)nc21,87.8
2,COc1cc2nccc(Oc3ccc(NC(=S)NC(=O)c4ccccc4C)cc3)c2cc1OC,104
3,NC(=O)c1ccc(N(C(N)=O)c2c(F)cccc2F)nc1-c1ccc(F)cc1F,101
4,O=c1cc(-c2cccc3c2Sc2ccccc2S3)oc(N2CCOCC2)c1,102
5,CC(C)(C)c1nc2c3ccc(F)cc3c3c(=O)[nH]ccc3c2[nH]1,9.03

# Target: CDK5 CDK5R1 p25 (human) (UniProt Q00535+Q15078)
# Test: as above
# Conditions: compound 0.5 µM; ATP 10 µM
row,SMILES,residual activity [%]
1,CC(C)n1cnc2c(Nc3cccc(Cl)c3)nc(NCCO)nc21,26.2
2,COc1cc2nccc(Oc3ccc(NC(=S)NC(=O)c4ccccc4C)cc3)c2cc1OC,93.2
3,NC(=O)c1ccc(N(C(N)=O)c2c(F)cccc2F)nc1-c1ccc(F)cc1F,95.9
4,O=c1cc(-c2cccc3c2Sc2ccccc2S3)oc(N2CCOCC2)c1,96.8

# Target: STK39 (human) (UniProt Q9UEW8)
# Test: as above
# Conditions: compound 0.5 µM; ATP 10 µM
row,SMILES,residual activity [%]
1,CC(C)n1cnc2c(Nc3cccc(Cl)c3)nc(NCCO)nc21,100
2,COc1cc2nccc(Oc3ccc(NC(=S)NC(=O)c4ccccc4C)cc3)c2cc1OC,91.5
3,NC(=O)c1ccc(N(C(N)=O)c2c(F)cccc2F)nc1-c1ccc(F)cc1F,93.7
4,O=c1cc(-c2cccc3c2Sc2ccccc2S3)oc(N2CCOCC2)c1,84
5,CC(C)(C)c1nc2c3ccc(F)cc3c3c(=O)[nH]ccc3c2[nH]1,93.8

# Target: CAMK2B (human) (UniProt Q13554)
# Test: as above
# Conditions: compound 0.5 µM; ATP 10 µM
# Chain of CAMK2B (human) (Q13554 whole entry, looked up): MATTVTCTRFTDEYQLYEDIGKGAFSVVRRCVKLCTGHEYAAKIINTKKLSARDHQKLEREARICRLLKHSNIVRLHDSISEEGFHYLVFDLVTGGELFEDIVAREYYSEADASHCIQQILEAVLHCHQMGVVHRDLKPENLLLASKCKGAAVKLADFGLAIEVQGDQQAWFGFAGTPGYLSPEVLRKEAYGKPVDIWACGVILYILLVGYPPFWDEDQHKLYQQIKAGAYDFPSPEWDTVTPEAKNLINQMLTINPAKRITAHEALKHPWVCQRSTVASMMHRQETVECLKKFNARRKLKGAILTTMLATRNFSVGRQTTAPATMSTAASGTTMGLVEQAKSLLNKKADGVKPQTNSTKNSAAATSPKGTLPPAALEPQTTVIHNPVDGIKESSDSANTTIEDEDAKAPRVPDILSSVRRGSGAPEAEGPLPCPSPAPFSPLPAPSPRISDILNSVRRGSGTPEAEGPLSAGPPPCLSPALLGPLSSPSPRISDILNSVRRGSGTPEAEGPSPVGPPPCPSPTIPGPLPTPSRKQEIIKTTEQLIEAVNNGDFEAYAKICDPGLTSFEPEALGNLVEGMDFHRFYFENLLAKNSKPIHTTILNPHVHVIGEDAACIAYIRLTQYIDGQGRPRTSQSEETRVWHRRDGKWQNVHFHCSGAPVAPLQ
row,SMILES,residual activity [%]
1,CC(C)n1cnc2c(Nc3cccc(Cl)c3)nc(NCCO)nc21,95.9
2,COc1cc2nccc(Oc3ccc(NC(=S)NC(=O)c4ccccc4C)cc3)c2cc1OC,104
3,NC(=O)c1ccc(N(C(N)=O)c2c(F)cccc2F)nc1-c1ccc(F)cc1F,104
4,O=c1cc(-c2cccc3c2Sc2ccccc2S3)oc(N2CCOCC2)c1,106
5,CC(C)(C)c1nc2c3ccc(F)cc3c3c(=O)[nH]ccc3c2[nH]1,73.4

# Target: LYN (human) (UniProt P07948)
# Test: as above
# Conditions: compound 0.5 µM; ATP 10 µM
row,SMILES,residual activity
1,CC(C)n1cnc2c(Nc3cccc(Cl)c3)nc(NCCO)nc21,80.2% and 94.6%
2,COc1cc2nccc(Oc3ccc(NC(=S)NC(=O)c4ccccc4C)cc3)c2cc1OC,16.9% and 31.8%
3,NC(=O)c1ccc(N(C(N)=O)c2c(F)cccc2F)nc1-c1ccc(F)cc1F,106% and 98.1%
4,O=c1cc(-c2cccc3c2Sc2ccccc2S3)oc(N2CCOCC2)c1,106% and 116%
